Experimental data: US20220214363A1, “NOVEL LIGAND ASSAYS” (InsituGen Limited, priority 2019, published 2022)

Target: T1, AR (Homo sapiens, UniProt P10275)
T1 sequence (P10275 1-920): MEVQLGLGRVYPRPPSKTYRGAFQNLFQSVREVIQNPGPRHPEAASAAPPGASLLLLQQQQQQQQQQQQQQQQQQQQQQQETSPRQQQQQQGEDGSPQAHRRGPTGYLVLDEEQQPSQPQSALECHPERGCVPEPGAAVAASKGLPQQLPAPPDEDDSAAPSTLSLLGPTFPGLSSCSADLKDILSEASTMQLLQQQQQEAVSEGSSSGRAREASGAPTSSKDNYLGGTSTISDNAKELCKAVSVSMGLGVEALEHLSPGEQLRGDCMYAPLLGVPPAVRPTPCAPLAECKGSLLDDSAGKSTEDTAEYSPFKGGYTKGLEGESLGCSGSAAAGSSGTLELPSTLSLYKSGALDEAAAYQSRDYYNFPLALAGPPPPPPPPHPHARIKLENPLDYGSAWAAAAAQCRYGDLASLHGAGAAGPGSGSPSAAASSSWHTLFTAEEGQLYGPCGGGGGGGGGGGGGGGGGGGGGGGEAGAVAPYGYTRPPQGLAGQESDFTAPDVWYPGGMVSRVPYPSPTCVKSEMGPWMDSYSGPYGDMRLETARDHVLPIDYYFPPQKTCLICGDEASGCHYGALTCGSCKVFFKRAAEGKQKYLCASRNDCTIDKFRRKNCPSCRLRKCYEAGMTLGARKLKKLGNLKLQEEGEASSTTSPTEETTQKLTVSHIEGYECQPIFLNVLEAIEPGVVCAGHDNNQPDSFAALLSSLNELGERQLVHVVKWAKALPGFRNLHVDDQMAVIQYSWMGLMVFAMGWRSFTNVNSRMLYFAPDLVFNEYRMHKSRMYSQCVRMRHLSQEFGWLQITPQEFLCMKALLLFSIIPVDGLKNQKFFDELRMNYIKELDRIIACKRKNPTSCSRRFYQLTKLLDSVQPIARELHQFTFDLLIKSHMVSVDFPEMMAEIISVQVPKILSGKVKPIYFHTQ
Details: gelding urine sample spiked with trenbolone before deconjugation and extraction; vs ethanol control set at 100%
Text: Spiked trenbolone represents a gelding urine sample that had been spiked with trenbolone before the deconjugation and extraction steps. T7 activity measured for the ethanol control was arbitrarily set at 100%.
Racehorse urine samples were collected on race day and steroids deconjugated and extracted using routine processes. The extracted steroids were resuspended in ethanol and subjected to the assay.

**Q.** How did the “suppression of T7-generated Mango II” value turn out when `C[C@]12C=CC3=C4CCC(=O)C=C4CCC3C1CC[C@@H]2O` (stereo partly shown) [trenbolone] was run?
**A.** suppression of T7-generated Mango II
